# From ChEMBL document CHEMBL1201862, “PubChem BioAssay data set” (2004)
# Active and inactive are the calls of the source.
# Assays:
# [1] = target: Sphingosine 1-phosphate receptor 3 (Homo sapiens, UniProt Q99500); assay: Dose response cell-based high throughput screening assay for antagonists of the Sphingosine 1-Phosphate Receptor 3 (S1P3). [Related pubchem assays: 1429, 485 ]; format: functional
# [2] = target: 5-hydroxytryptamine receptor 1E (Homo sapiens, UniProt P28566); assay: Counterscreen assay for S1P3 antagonists: Dose response cell-based high throughput screening assay to identify antagonists of the 5-Hydroxytryptamine Receptor Subtype 1E (5HT1E). [Related pubchem assays: 1429, 485 ]; format: functional
# [3] = target: Peroxisome proliferator-activated receptor gamma/Nuclear receptor corepressor 2 (Homo sapiens, UniProt P37231+Q9Y618); assay: Counterscreen for NR2E3 inverse agonists: TR-FRET-based biochemical high throughput dose response assay to identify inverse agonists of the interaction between peroxisome proliferator-activated receptor gamma (PPARg) and nuclear receptor co-repressor 2 (NCOR2).; format: functional
# [4] = target: Photoreceptor-specific nuclear receptor (Homo sapiens, UniProt Q9Y5X4); assay: ligands suppressing NR2E3 nuclear receptor activity – biochemical, TR-FRET, dose response (AID 463256); format: functional
# [5] = Luminescent dose response cell-based high throughput screening assay for inhibitors of the Janus kinase 2 mutant JAK2V617F. [Related pubchem assays: 1446 (Primary screen.), 1521 (Confirmation assay.), 1486 (Counter screen.)]; format: functional
# [6] = viability loss in Vero cells – cytotoxicity control for Vif-APOBEC3G degradation inhibitor project, dose response (AID 1117358); format: functional; details: Vero
# Estrogen receptor = target: T1, Estrogen receptor (Homo sapiens, UniProt P03372); assay: ERα coactivator recruitment enhancers – biochemical, TR-FRET, ERα LBD, dose response (AID 737)
# T1 sequence (P03372 whole entry): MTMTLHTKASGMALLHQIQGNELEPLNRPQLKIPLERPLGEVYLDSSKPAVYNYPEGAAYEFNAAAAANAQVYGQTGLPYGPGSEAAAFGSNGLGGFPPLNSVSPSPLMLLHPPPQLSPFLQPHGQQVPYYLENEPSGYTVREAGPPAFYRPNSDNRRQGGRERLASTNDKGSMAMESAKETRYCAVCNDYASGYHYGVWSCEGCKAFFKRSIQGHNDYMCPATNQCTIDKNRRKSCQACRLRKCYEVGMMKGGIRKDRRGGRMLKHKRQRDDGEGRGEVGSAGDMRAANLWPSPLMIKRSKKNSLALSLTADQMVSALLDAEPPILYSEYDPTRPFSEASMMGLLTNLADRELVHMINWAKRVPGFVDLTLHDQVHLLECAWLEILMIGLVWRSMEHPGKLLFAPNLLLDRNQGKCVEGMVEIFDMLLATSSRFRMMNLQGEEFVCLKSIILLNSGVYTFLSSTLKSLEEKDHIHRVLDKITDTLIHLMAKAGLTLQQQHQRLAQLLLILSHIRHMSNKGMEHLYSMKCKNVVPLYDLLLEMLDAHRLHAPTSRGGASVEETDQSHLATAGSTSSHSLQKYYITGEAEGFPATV
# [7] = M. tuberculosis H37Rv growth inhibitors, H37Rv strain (AID 1626); format: functional
# [8] = viability loss in HeLa cells – cytotoxicity control for MgcRacGAP inhibitor project, dose response (AID 624300); format: functional
# [9] = target: T2, Mannose-6-phosphate isomerase (Homo sapiens, UniProt P34949); assay: MPI enzyme activity inhibition – biochemical, fluorescence intensity, coupled assay, primary screen (AID 1209)
# T2 sequence (P34949 whole entry): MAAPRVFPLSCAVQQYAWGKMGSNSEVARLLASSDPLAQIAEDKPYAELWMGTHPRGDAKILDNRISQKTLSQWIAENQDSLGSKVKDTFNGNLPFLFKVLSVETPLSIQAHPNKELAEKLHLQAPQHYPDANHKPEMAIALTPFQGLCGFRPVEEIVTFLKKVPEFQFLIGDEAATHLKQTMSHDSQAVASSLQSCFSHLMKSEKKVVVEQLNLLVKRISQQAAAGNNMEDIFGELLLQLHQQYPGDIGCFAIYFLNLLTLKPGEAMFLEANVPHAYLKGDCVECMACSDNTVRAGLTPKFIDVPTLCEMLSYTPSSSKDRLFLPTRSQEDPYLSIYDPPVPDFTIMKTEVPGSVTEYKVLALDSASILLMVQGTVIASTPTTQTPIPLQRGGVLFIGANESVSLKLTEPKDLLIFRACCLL
# Nonstructural protein 1 = Nonstructural protein 1 (Influenza A virus, UniProt Q194T2); format: functional, Influenza A virus (A/California/07/2009(H1N1))
# [10] = target: T3, Rac GTPase-activating protein 1 (Homo sapiens, UniProt Q9H0H5); assay: blockers of MgcRacGAP-driven Rac1 GTP hydrolysis – biochemical, ADP Hunter fluorescence, primary and confirmatory, confirmation (AID 624330); format: functional
# T3 sequence (Q9H0H5 whole entry): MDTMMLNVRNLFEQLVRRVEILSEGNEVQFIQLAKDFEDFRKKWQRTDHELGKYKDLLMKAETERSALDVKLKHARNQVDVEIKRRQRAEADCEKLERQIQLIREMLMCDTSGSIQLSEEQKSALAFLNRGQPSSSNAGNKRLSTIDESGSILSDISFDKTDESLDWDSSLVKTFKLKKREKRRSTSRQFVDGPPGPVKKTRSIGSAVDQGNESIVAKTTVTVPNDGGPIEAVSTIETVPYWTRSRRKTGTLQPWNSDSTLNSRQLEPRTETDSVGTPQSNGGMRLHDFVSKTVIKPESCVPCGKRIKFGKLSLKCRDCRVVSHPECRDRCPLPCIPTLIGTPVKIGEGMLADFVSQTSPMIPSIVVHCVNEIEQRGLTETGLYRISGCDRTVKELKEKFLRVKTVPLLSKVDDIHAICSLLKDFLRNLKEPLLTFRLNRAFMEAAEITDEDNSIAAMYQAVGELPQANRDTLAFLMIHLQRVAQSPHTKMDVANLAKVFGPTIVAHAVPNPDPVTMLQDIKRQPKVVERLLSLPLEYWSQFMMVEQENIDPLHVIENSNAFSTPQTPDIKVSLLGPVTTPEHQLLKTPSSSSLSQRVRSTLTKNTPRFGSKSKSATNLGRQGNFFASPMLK
# Cytochrome P450 2D6 = Cytochrome P450 2D6 (Homo sapiens, UniProt P10635);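 also: CYP2D6 member of a cytochrome P450 panel assay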
# Cytochrome P450 2D6, sequence (P10635 whole entry): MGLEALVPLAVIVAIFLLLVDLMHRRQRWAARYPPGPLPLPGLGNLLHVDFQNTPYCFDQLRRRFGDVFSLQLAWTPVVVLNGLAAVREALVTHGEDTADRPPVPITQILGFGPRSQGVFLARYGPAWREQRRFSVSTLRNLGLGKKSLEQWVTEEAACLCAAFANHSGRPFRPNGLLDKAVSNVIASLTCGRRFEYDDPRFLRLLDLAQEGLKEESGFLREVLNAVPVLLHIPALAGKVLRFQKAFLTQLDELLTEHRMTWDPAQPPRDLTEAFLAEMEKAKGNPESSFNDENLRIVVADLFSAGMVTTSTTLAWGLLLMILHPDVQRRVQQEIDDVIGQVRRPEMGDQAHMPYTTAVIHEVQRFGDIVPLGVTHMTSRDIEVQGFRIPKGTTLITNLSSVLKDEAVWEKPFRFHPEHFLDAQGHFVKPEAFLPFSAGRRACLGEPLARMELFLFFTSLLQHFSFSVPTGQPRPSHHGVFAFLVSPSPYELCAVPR
# Photoreceptor-specific nuclear receptor, sequence (Q9Y5X4 whole entry): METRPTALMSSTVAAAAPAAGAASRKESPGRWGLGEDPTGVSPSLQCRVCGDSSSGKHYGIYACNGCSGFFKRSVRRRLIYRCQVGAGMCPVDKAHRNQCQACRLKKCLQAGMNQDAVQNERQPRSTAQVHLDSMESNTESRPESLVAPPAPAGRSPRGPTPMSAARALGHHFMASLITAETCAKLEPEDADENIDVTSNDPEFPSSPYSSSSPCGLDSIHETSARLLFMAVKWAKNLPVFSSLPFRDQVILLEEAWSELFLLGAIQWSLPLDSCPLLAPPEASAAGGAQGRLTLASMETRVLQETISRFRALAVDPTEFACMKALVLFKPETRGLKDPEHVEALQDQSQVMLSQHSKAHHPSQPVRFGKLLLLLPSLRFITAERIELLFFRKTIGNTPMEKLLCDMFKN
# 5-hydroxytryptamine receptor 1E, sequence (P28566 whole entry): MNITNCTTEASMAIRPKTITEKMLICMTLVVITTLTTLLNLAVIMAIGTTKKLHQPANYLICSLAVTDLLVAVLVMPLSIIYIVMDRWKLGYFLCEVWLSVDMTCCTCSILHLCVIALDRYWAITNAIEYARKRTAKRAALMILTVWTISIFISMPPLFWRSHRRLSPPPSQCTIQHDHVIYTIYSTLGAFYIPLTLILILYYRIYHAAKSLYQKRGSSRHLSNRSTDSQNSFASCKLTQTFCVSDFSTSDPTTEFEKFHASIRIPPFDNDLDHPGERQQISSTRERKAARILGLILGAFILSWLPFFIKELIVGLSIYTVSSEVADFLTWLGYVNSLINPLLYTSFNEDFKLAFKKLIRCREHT
# Peroxisome proliferator-activated receptor gamma/Nuclear receptor corepressor 2, sequence (P37231 whole entry): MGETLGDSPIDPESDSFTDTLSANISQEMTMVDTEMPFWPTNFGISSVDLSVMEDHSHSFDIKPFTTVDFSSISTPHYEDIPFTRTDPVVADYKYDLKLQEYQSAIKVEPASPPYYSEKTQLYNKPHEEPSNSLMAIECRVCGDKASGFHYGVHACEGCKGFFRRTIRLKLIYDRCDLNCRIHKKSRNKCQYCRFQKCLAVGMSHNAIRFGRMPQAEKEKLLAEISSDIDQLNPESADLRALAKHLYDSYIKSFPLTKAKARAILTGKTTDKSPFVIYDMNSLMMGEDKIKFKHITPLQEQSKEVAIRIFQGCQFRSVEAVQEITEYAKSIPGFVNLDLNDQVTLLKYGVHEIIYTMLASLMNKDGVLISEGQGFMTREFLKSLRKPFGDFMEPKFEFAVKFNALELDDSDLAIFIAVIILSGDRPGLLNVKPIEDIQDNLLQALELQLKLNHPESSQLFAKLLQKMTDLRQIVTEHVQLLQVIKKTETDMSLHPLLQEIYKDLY
# Peroxisome proliferator-activated receptor gamma/Nuclear receptor corepressor 2, sequence (Q9Y618 whole entry): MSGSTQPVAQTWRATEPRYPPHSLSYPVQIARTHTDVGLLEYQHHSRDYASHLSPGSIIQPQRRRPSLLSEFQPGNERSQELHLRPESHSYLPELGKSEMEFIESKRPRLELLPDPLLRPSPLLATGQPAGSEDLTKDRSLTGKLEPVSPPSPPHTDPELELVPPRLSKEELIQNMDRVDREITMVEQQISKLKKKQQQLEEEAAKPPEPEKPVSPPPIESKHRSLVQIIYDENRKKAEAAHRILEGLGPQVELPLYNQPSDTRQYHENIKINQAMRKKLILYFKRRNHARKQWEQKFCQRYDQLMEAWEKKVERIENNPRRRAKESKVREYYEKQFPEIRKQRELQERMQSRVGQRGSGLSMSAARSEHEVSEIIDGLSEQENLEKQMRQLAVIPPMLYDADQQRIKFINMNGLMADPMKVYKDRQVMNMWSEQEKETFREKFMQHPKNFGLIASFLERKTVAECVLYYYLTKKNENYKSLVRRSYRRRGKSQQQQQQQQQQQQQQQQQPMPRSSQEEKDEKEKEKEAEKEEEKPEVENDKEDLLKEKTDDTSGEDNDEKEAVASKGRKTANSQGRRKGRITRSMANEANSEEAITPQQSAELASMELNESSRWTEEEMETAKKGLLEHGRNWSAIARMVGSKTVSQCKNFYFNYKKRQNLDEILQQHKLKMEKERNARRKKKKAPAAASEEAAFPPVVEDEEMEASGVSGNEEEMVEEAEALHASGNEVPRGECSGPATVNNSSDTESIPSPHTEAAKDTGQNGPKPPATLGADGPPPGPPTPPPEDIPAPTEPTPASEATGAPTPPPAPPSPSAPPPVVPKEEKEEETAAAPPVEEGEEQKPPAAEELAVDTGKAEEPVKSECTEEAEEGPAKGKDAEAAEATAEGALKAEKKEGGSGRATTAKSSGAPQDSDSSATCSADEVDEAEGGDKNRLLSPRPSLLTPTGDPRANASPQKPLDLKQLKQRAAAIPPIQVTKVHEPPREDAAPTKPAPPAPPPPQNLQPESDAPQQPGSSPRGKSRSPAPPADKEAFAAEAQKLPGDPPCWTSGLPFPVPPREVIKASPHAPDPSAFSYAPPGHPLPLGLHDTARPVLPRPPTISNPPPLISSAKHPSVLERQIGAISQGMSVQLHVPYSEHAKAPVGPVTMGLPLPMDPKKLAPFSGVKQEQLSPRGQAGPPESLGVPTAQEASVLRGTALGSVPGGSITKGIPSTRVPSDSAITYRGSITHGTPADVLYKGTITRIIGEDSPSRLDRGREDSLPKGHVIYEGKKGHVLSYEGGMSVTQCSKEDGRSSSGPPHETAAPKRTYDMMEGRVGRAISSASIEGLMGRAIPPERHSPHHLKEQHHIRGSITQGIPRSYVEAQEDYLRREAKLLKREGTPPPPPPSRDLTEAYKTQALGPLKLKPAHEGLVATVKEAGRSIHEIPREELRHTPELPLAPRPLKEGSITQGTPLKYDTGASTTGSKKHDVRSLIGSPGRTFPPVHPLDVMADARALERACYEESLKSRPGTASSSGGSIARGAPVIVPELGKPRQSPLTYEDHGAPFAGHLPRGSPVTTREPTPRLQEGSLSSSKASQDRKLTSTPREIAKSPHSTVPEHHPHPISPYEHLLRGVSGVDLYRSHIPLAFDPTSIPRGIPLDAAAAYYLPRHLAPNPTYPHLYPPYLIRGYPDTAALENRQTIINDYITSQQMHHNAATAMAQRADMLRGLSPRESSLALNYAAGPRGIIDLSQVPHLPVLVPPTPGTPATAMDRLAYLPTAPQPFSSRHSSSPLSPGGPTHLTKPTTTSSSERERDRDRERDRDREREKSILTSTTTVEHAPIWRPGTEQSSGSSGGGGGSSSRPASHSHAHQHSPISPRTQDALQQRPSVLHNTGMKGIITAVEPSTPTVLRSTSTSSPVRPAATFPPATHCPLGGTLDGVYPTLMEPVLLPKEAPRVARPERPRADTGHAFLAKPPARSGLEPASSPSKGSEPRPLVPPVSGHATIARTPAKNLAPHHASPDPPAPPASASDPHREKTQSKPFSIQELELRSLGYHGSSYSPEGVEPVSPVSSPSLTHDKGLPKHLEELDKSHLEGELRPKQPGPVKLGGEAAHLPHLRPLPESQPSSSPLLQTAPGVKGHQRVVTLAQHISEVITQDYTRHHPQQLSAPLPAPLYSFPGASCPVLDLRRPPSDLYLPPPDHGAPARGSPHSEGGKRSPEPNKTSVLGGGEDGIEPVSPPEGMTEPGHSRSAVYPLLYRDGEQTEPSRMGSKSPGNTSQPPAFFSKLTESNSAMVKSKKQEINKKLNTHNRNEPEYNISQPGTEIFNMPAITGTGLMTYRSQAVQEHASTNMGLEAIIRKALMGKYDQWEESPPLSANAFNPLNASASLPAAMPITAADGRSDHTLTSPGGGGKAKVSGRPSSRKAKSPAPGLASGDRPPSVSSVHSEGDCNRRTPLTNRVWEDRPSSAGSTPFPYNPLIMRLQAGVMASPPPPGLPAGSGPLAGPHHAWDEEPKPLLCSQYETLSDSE
# Nonstructural protein 1, sequence (Q194T2 whole entry): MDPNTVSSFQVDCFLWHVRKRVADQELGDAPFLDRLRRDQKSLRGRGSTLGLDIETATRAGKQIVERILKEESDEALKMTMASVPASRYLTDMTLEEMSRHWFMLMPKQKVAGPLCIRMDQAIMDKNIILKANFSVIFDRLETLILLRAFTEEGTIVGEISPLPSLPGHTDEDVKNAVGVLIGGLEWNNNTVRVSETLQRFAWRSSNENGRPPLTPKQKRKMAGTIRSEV
# Sphingosine 1-phosphate receptor 3, sequence (Q99500 whole entry): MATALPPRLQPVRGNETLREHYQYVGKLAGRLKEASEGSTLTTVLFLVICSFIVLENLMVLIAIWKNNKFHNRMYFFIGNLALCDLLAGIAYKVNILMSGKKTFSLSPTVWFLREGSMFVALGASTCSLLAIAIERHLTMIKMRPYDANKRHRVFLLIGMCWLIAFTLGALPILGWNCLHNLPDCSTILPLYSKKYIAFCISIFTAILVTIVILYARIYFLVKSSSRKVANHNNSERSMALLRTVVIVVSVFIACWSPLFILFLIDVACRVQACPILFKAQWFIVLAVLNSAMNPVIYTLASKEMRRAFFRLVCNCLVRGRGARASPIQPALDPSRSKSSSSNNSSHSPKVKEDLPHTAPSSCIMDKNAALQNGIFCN
compound,measurement,setting,value
Cc1ccccc1C(=O)N1CCN(c2ccc(NC(=O)c3ccc4c(c3)OCO4)cc2)CC1,IC50,[1],> 50 µM (not active)
same,IC50,[2],13.7 µM (not active)
CC1(C)Cc2ccccc2-c2nnc(SCC(=O)N3CCc4ccccc43)n21,IC50,[3],7.95 µM (active)
same,IC50,[4],4.42 µM (active)
COc1ccc(-c2cnc3c(c2)CCC3(C#N)C#N)cc1,IC50,[5],0.768 µM (active)
CCCCCO/C(O)=C1\C(C)=Nc2nnnn2C1c1ccccc1Cl (stereo not drawn),CC50,[6],> 40 µM (active)
CCOC(=O)c1cc2c(c(CSc3nc4ccccc4c(=O)n3Cc3ccco3)c1)OCOC2,EC50,Estrogen receptor,3.27 µM (active)
CCOC(=O)c1ccc(NC(=O)Cn2cccc2)cc1,IC50,[7],> 100 µM (active)
CC(C)/N=c1\scc(-c2ccco2)n1/N=C/c1ccc(O)c(O)c1,CC50,[8],99.4 µM (active)
same,IC50,[9],> 50 µM (not active)
same,IC50,Nonstructural protein 1,39.3 µM (active)
same,IC50,[10],56.3 µM (active)
same,AC50,Cytochrome P450 2D6,14.1 µM (inconclusive)
